What was measured:
[1] = test system: DLD-1; experiment: Cytotoxicity against human DLD-1 cells measured after 8 days; format: functional, cell-based; settings: DLD-1, 192 h
[2] = test system: LNCaP; experiment: Cytotoxicity against human LNCaP clone FGC cells measured after 8 days; format: functional, cell-based; settings: 192 h
[3] = test system: HCC1419; experiment: Cytotoxicity against human HCC1419 cells measured after 8 days; format: functional, cell-based; settings: HCC1419, 192 h
[4] = molecular target: Proto-oncogene tyrosine-protein kinase receptor Ret (Homo sapiens) (UniProt P07949); experiment: Inhibition of Ret (unknown origin) at 1 uM relative to control
Sequence of Proto-oncogene tyrosine-protein kinase receptor Ret (Homo sapiens) (P07949 whole entry): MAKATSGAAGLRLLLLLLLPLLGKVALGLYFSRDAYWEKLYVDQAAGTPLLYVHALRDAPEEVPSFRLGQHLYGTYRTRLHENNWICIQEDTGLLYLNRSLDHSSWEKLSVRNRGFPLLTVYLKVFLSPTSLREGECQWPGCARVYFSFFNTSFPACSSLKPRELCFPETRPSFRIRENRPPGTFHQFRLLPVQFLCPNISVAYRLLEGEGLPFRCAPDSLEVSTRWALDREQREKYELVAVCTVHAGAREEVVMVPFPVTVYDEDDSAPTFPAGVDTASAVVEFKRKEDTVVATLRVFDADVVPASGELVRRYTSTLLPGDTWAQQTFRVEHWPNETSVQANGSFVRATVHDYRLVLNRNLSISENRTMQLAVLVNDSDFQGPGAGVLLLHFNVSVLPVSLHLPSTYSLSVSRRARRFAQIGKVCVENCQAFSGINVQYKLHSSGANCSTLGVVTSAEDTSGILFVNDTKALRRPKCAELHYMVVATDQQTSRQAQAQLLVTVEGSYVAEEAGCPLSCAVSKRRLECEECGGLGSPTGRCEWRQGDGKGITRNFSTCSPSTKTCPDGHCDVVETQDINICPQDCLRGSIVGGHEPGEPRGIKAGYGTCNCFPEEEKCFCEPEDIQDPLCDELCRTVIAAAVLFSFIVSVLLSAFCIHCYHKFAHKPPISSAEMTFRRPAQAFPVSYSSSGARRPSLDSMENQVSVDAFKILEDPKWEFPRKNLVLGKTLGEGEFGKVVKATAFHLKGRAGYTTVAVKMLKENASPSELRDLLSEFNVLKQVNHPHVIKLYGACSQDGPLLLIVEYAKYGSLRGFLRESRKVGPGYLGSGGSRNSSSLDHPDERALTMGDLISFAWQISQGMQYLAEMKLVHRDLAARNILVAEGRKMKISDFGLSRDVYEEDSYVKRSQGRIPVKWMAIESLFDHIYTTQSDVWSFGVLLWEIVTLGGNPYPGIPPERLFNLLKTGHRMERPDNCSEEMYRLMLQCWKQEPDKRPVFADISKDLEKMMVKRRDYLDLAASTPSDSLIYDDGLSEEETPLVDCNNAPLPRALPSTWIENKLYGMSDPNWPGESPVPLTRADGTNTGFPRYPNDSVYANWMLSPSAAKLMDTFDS

[5] = molecular target: Serine/threonine-protein kinase pim-1 (Homo sapiens) (UniProt P11309); experiment: Inhibition of PIM1 (unknown origin) at 1 uM relative to control
Sequence of Serine/threonine-protein kinase pim-1 (Homo sapiens) (P11309 whole entry, looked up): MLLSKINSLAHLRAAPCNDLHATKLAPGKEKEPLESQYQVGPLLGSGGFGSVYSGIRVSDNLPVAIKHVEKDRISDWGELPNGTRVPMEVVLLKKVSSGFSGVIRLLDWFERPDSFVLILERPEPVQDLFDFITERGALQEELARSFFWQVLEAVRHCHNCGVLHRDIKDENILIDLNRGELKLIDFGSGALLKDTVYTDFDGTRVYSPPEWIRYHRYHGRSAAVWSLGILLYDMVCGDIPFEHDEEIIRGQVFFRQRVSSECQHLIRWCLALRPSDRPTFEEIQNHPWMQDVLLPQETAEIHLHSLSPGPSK

[6] = molecular target: Tyrosine-protein kinase ABL1 (Homo sapiens) (UniProt P00519); experiment: Inhibition of Abl (unknown origin) at 1 uM relative to control
[7] = molecular target: Bromodomain-containing protein 4 (Homo sapiens, UniProt O60885); experiment: Binding affinity to human partial length BRD4 bromodomain 2 long isoform (K333 to E460 residues) expressed in bacterial expression system by BROMOscan assay
[8] = molecular target: Serine/threonine-protein kinase 24 (Homo sapiens) (UniProt Q9Y6E0); experiment: Inhibition of MST3 (unknown origin) at 1 uM relative to control
Sequence of Serine/threonine-protein kinase 24 (Homo sapiens) (Q9Y6E0 whole entry, looked up): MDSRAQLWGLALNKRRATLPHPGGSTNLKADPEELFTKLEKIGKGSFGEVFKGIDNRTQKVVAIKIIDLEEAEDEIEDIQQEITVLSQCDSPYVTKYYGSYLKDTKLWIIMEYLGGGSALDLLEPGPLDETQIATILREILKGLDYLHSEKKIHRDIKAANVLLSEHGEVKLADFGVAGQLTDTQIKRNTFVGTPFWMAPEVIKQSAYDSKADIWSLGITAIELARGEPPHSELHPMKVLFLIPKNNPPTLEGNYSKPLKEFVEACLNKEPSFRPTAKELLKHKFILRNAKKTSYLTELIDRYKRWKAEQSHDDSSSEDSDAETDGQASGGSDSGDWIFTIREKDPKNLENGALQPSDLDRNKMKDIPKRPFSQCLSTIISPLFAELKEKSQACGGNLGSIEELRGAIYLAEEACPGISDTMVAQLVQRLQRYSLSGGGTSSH

[9] = Cytotoxicity against human SK-MEL-23 cells measured after 8 days; format: functional, cell-based; settings: SK-MEL-23, 192 h
[10] = molecular target: Dual specificity mitogen-activated protein kinase kinase 1 (Homo sapiens) (UniProt Q02750); experiment: Inhibition of MEK1 (unknown origin) at 1 uM relative to control
Sequence of Dual specificity mitogen-activated protein kinase kinase 1 (Homo sapiens) (Q02750 whole entry): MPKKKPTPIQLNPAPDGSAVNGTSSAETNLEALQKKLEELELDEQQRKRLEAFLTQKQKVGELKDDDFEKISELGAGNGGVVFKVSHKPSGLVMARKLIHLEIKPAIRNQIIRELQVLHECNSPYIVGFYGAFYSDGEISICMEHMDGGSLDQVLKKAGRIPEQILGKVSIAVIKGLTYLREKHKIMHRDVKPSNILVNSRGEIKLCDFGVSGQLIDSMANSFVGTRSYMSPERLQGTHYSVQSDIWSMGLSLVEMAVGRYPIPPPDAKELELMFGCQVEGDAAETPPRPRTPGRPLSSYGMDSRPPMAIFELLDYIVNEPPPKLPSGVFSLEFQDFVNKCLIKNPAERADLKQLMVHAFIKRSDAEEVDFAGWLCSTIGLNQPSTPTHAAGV

[11] = test system: SW480; experiment: Cytotoxicity against human SW480 cells measured after 8 days; format: functional, cell-based; settings: SW480, 192 h
[12] = Cytotoxicity against human NCI-H2595 cells measured after 8 days; format: functional, cell-based; settings: NCI-H2595, 192 h
[13] = molecular target: Aurora kinase B (Homo sapiens) (UniProt Q96GD4); experiment: Inhibition of Aurora B (unknown origin) at 1 uM relative to control
Sequence of Aurora kinase B (Homo sapiens) (Q96GD4 whole entry): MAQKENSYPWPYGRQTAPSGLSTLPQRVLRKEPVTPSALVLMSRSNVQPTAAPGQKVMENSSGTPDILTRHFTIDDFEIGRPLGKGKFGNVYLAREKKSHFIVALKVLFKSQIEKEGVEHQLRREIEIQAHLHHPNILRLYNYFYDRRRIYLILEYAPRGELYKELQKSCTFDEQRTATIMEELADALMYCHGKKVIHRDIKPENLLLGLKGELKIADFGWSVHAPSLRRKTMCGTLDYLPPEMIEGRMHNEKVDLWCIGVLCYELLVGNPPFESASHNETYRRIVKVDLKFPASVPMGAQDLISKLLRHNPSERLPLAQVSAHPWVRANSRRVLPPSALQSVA

[14] = test system: DU-145; experiment: Cytotoxicity against human DU-145 cells measured after 8 days; format: functional, cell-based; settings: DU-145, 192 h
[15] = molecular target: Bromodomain-containing protein 3 (Homo sapiens, UniProt Q15059); experiment: Binding affinity to BRD3 bromodomain 1/2 (unknown origin) by BROMOscan assay
[16] = test system: NCI-H727; experiment: Cytotoxicity against human NCI-H727 cells measured after 8 days; format: functional, cell-based; settings: NCI-H727, 192 h
[17] = Cytotoxicity against human SNU-719 cells measured after 8 days; format: functional, cell-based; settings: SNU-719, 192 h
[18] = molecular target: Adrenergic receptor alpha-1 (Rattus norvegicus) (UniProt P15823+P23944+P43140); experiment: Displacement of [3H]-prazosin from rat alpha1 adrenoceptor at 10 uM after 60 mins by scintillation counting analysis relative to control; format: protein assay
[19] = test system: PA-1; experiment: Cytotoxicity against human PA-1 cells measured after 8 days; format: functional, cell-based; settings: PA-1, 192 h
[20] = molecular target: Nucleosome-remodeling factor subunit BPTF (Homo sapiens, UniProt Q12830); experiment: Binding affinity to human partial length FALZ (S2791 to H2911 residues) expressed in bacterial expression system by BROMOscan assay
[21] = molecular target: Ribosomal protein S6 kinase alpha-2 (Homo sapiens) (UniProt Q15349); experiment: Inhibition of RSK3 (unknown origin) at 1 uM relative to control
Sequence of Ribosomal protein S6 kinase alpha-2 (Homo sapiens) (Q15349 whole entry): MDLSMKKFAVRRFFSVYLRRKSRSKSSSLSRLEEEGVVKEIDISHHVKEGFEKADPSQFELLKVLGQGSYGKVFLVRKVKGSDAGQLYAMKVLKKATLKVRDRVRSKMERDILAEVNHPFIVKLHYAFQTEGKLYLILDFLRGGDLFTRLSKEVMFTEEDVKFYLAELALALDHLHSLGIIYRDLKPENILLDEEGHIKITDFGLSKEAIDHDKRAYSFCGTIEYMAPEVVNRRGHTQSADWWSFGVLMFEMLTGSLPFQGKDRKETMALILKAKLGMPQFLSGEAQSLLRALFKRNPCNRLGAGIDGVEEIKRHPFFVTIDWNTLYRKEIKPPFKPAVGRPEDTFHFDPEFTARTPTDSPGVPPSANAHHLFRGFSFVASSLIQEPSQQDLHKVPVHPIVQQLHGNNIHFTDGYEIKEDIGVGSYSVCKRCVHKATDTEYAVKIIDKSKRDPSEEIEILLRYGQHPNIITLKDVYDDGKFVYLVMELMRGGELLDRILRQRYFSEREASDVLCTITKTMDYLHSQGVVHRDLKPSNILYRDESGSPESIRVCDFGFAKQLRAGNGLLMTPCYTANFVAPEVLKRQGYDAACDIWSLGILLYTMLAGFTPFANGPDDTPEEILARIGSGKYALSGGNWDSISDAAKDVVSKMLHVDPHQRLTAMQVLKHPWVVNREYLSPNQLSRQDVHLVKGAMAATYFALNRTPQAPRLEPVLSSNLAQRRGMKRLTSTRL

[22] = test system: HCC4017; experiment: Cytotoxicity against human HCC4017 cells measured after 8 days; format: functional, cell-based; settings: HCC4017, 192 h
[23] = Cytotoxicity against human NCI-H2110 cells measured after 8 days; format: functional, cell-based; settings: NCI-H2110, 192 h
[24] = molecular target: Bromodomain-containing protein 2 (Homo sapiens, UniProt P25440); experiment: Binding affinity to human partial length BRD2 bromodomain 1/2 isoform 1 (K71 to D455 residues) by BROMOscan assay
[25] = test system: EOL1; experiment: Cytotoxicity against human EOL1 cells measured after 8 days; format: functional, cell-based; settings: EOL1, 192 h
[26] = Cytotoxicity against human Ci-1 cells measured after 8 days; format: functional, cell-based; settings: Ci-1, 192 h
[27] = species on record: Homo sapiens; experiment: Binding affinity to GABA-gated chloride channel (unknown origin) at 10 uM by antagonist radioligand-based assay relative to control; set-up: scale not given: the % may be the effect or the level left; settings: time 60.0 min
[28] = test system: CX-1; experiment: Cytotoxicity against human CX-1 cells measured after 8 days; format: functional, cell-based; settings: CX-1, 192 h
[29] = molecular target: RAC-alpha serine/threonine-protein kinase (Homo sapiens) (UniProt P31749); experiment: Inhibition of AKT1 (unknown origin) at 1 uM relative to control
Sequence of RAC-alpha serine/threonine-protein kinase (Homo sapiens) (P31749 whole entry): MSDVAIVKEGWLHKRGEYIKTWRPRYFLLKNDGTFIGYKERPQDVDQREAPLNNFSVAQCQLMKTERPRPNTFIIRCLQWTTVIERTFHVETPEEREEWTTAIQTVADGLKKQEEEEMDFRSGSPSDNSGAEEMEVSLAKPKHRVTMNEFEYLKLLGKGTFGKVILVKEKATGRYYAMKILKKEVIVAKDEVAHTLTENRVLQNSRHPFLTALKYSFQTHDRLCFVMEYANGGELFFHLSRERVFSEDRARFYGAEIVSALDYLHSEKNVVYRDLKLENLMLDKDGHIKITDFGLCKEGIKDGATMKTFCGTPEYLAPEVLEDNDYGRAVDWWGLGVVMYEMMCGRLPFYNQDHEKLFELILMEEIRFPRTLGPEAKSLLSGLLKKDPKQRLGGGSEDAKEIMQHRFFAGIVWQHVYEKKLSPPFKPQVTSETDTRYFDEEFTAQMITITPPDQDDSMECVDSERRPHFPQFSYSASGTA

[30] = Cytotoxicity against human OVCA429 cells measured after 8 days; format: functional, cell-based; settings: OVCA429, 192 h
[31] = test system: LCLC-97TM1; experiment: Cytotoxicity against human LCLC-97TM1 cells measured after 8 days; format: functional, cell-based; settings: LCLC-97TM1, 192 h
[32] = test system: Granta-519; experiment: Cytotoxicity against human Granta-519 cells measured after 8 days; format: functional, cell-based; settings: Granta-519, 192 h
[33] = test system: OPM-2; experiment: Cytotoxicity against human OPM-2 cells measured after 8 days; format: functional, cell-based; settings: OPM-2, 192 h
[34] = Cytotoxicity against human OCI-M2 cells measured after 8 days; format: functional, cell-based; settings: OCI-M2, 192 h
[35] = test system: Ramos; experiment: Cytotoxicity against human Ramos cells measured after 8 days; format: functional, cell-based; settings: 192 h
[36] = molecular target: Protein polybromo-1 (Homo sapiens, UniProt Q86U86); experiment: Binding affinity to human partial length PBRM1 bromodomain 1 (S178 to E291 residues) expressed in bacterial expression system by BROMOscan assay
[37] = molecular target: Bromodomain and WD repeat-containing protein 1 (Homo sapiens, UniProt Q9NSI6); experiment: Binding affinity to human partial length WDR9 bromodomain 2 (A1310 to E1430 residues) expressed in bacterial expression system by BROMOscan assay
[38] = Cytotoxicity against human HCC2279 cells measured after 8 days; format: functional, cell-based; settings: HCC2279, 192 h
[39] = test system: MDA-MB-157; experiment: Cytotoxicity against human MDA-MB-157 cells measured after 8 days; format: functional, cell-based; settings: MDA-MB-157, 192 h
[40] = molecular target: Macrophage colony-stimulating factor 1 receptor (Homo sapiens) (UniProt P07333); experiment: Inhibition of CSF1R (unknown origin) at 1 uM relative to control
Sequence of Macrophage colony-stimulating factor 1 receptor (Homo sapiens) (P07333 whole entry): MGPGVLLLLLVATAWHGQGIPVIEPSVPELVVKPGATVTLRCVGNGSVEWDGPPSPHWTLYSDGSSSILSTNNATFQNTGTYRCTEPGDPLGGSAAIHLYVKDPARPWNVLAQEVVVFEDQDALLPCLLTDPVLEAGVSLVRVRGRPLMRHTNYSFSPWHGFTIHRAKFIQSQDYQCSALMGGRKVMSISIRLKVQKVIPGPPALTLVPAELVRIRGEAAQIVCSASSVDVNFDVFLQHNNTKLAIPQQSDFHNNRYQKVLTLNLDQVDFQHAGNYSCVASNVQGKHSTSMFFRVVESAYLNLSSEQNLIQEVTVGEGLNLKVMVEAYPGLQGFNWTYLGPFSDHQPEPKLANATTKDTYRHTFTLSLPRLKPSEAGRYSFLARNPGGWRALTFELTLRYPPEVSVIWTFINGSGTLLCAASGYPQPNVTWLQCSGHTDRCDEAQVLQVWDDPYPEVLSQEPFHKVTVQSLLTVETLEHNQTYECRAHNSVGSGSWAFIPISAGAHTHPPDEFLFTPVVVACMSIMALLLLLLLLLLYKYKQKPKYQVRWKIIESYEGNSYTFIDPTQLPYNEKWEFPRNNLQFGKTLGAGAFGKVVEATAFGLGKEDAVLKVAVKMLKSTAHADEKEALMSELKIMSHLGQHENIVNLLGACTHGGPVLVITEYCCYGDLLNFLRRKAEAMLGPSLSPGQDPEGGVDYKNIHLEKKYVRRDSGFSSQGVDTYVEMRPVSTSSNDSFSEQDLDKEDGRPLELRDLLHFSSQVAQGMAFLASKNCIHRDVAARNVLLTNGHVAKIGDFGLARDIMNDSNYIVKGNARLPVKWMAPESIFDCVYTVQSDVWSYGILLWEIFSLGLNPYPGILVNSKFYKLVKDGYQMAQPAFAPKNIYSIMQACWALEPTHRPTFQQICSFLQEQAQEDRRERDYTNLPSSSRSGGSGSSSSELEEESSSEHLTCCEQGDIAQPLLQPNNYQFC

C/C=C/Cn1cc(-c2ccc(C(=O)N3CCOCC3)cc2)c2cc[nH]c2c1=O
IC50 [1]: 20 µM
IC50 [2]: 16.5 µM
IC50 [3]: 20 µM
inhibition [4]: -0.9%
inhibition [5]: -3.4%
inhibition [6]: -4.2%
Kd [7]: 6.6 µM
inhibition [8]: -2.5%
IC50 [9]: 20 µM
inhibition [10]: 3%
IC50 [11]: 20 µM
IC50 [12]: 20 µM
inhibition [13]: -0.4%
IC50 [14]: 20 µM
Kd [15]: 4.4 µM
IC50 [16]: 20 µM
IC50 [17]: 20 µM
Activity [18]: 7%
IC50 [19]: 20 µM
Kd [20]: > 10 µM
inhibition [21]: -4.3%
IC50 [22]: 20 µM
IC50 [23]: 20 µM
Kd [24]: 2.3 µM
IC50 [25]: 0.95 µM
IC50 [26]: 20 µM
Activity [27]: 4%
IC50 [28]: 20 µM
inhibition [29]: -2.1%
IC50 [30]: 20 µM
IC50 [31]: 20 µM
IC50 [32]: 20 µM
IC50 [33]: 10 µM
IC50 [34]: 5.21 µM
IC50 [35]: 20 µM
Kd [36]: > 10 µM
Kd [37]: 27 µM
IC50 [38]: 20 µM
IC50 [39]: 20 µM
inhibition [40]: 2.8%

C/C=C/Cn1cc(-c2cc(OC)c(C(C)(C)O)cc2OC)c2cc(C)[nH]c2c1=O
Kd [7]: > 10 µM
Kd [15]: > 10 µM
Kd [20]: > 10 µM
Kd [24]: 1.7 µM
Kd [36]: > 10 µM
Kd [37]: > 10 µM

C/C=C/Cn1cc(-c2cc(OC)c(C(=O)N3CCOCC3)cc2OC)c2cc(C)[nH]c2c1=O
IC50 [1]: 2 µM
IC50 [2]: 2 µM
IC50 [3]: 2 µM
inhibition [4]: 3%
inhibition [5]: 2%
inhibition [6]: 11%
Kd [7]: > 10 µM
inhibition [8]: 7%
IC50 [9]: 2 µM
inhibition [10]: 4%
IC50 [11]: 2 µM
IC50 [12]: 2 µM
inhibition [13]: 4.5%
IC50 [14]: 2 µM
Kd [15]: > 10 µM
IC50 [16]: 2 µM
IC50 [17]: 2 µM
Activity [18]: 3%
IC50 [19]: 2 µM
Kd [20]: > 10 µM
inhibition [21]: 3.5%
IC50 [22]: 2 µM
IC50 [23]: 2 µM
Kd [24]: > 10 µM
IC50 [25]: 1.34 µM
IC50 [26]: 2 µM
Activity [27]: 14%
IC50 [28]: 2 µM
inhibition [29]: 1.5%
IC50 [30]: 1.77 µM
IC50 [31]: 2 µM
IC50 [32]: 2 µM
IC50 [33]: 2 µM
IC50 [34]: 2 µM
IC50 [35]: 2 µM
Kd [36]: > 10 µM
Kd [37]: > 5 µM
IC50 [38]: 2 µM
IC50 [39]: 2 µM
inhibition [40]: 6.5%

C/C=C/Cn1cc(-c2ccc(C(C)(C)O)cc2OC)c2cc[nH]c2c1=O
IC50 [1]: 20 µM
IC50 [2]: 19.9 µM
IC50 [3]: 20 µM
inhibition [4]: 2%
inhibition [5]: 0.5%
inhibition [6]: 10%
Kd [7]: 3.7 µM
inhibition [8]: 6%
IC50 [9]: 20 µM
inhibition [10]: 1%
IC50 [11]: 20 µM
IC50 [12]: 20 µM
inhibition [13]: -0.5%
IC50 [14]: 20 µM
Kd [15]: 5.5 µM
IC50 [16]: 20 µM
IC50 [17]: 20 µM
Activity [18]: 7%
IC50 [19]: 16.4 µM
Kd [20]: > 10 µM
inhibition [21]: 5.5%
IC50 [22]: 20 µM
IC50 [23]: 20 µM
Kd [24]: 2.8 µM
IC50 [25]: 3.3 µM
IC50 [26]: 15 µM
Activity [27]: 15%
IC50 [28]: 20 µM
inhibition [29]: 2.5%
IC50 [30]: 20 µM
IC50 [31]: 20 µM
IC50 [32]: 20 µM
IC50 [33]: 13.7 µM
IC50 [34]: 20 µM
IC50 [35]: 20 µM
Kd [36]: 7.6 µM
Kd [37]: > 10 µM
IC50 [38]: 20 µM
IC50 [39]: 20 µM
inhibition [40]: 6.5%
